Measurements taken from patent US8153784B2, “Imaging of enzyme activity” (The General Hospital Corporation, priority 2004, dated 2012).

How the values were obtained:
Myeloperoxidase (MPO) = biological target: T1, Myeloperoxidase (MPO) (Homo sapiens, UniProt P05164); assay: MPO-mediated oligomerization of 2Gd^3+: UV, HPLC, MALDI-MS, relaxivity; type: biochemical; conditions: for degree of polymerization (N) of oligomerized products: MPO/H2O2, MALDI-MS
T1 construct: purchased Biodesign Int
T1 sequence (P05164 49-745): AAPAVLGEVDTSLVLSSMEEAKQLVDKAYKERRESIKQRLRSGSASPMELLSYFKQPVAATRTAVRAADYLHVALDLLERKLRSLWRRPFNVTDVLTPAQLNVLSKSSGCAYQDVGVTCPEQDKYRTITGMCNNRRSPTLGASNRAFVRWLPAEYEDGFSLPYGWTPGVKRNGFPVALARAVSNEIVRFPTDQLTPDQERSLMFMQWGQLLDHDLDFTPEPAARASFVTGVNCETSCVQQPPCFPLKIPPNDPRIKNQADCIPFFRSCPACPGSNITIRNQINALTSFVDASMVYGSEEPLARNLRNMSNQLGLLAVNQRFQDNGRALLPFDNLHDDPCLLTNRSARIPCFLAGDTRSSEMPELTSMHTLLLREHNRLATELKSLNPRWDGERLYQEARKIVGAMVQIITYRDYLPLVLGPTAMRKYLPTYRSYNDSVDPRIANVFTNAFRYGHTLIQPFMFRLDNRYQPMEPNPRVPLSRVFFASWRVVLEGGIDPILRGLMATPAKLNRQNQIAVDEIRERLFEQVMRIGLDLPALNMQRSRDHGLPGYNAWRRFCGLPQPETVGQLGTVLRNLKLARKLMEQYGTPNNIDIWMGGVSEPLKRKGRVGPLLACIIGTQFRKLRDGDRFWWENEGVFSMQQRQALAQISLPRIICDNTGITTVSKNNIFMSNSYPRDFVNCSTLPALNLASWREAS
Description: Myeloperoxidase was purchased from Biodesign Int. and was used as received, activity was measured as described by Klebanoff, S. J.; Waltersdorph, A. M.; Rosen, H.; Methods in Enzymology. Vol. 105, p 399-403.
We incubated 0.6 mL of a solution 10^4M of Gd^3+2 at pH=7.2/25° with 4 units of MPO and an excess of H2O2 for 90 minutes. […] The intensity of these new bands increased for a period of about 90 min, and that 90% of the change could be observed within first 30 min. The reaction was quenched by freezing the mixture in liquid N2. […] However, higher N value species were undetectable.
Four solutions with concentrations ranging from 10^−4 to 10^−3 where separately incubated as above and the T1 value were measured at 0.47T using standard inverse recovery sequence. The fitting of these values, following published procedures, yielded a r1=5.9 mM^−1s^−1. […] For longer incubation times, no linear correlation of T1 from Gd concentration could be obtained due to the precipitation of CA at millimolar concentrations. Lower relaxivity increase (32%) was observed when the activity of the enzyme was lowered to 1 unit.
Further characterization of r1 effects modulated by MPO was accomplished by using a 4×2 well plate array of samples prepared as shown in FIG. 14: Row 1 contained 0.3 mL Gd-DTPA-diSer solutions at pH 7.2; Row 2 included the samples the same concentrations and 4 units of MPO and 2 μL of a 3% of aqueous H2O2. Fitting the T1 values of the wells in row 1 afforded r1 of 4.7 mM^−1s^−1. […] In this case, we observed precipitation of insoluble products during the MRI scan. The fitting of the values measured in other 3 wells, the relaxivity was 5.5 mM^−1s^−1.
Indium-111 labeled bis-5-HT-DTPA was prepared by using transchelation from ^111In-oxiquinoline complex (oxine, Cardinal Health, Cleveland Ohio). To prepare ^111In-bis-5-HT-DTPA, 50 μg of bis-5-HT-DTPA (1 mg/ml) were mixed with 1 mCi ^111In-oxiquinoline solution in 0.7-1.0 ml saline and incubated for 1 hour under argon. Transchelation and purity was controlled by HPLC (Discovery C-18 column, 25×3 mm, Supelco) using 0-55% gradient of acetonitrile in water. Human myeloperoxidase was obtained from BioDesign, Inc., and its activity determined by using the method described by Klebanoff. To determine if the Gd compounds were substrates for human MPO, MPO-mediated oligomerization was monitored by size exclusion HPLC and by measuring ΔT1 on a Bruker Minispec 120 NMR spectrometer using a standard inversion recovery sequence. The degree of oligomerization was determined by mass spectroscopy (MALDI-MS).

plasma proteins = assay: Substrate binding to plasma components (Biospin P-6 elution with 111In tracer); type: in vitro ADME; conditions: human plasma; eluting experiments
Description: The follow experiments were performed to determine the effect of MPO-activated substrate oligomerization with plasma proteins to form larger aggregate. Human plasma was extracted from healthy donors by the use of Polymorphprep (Accurate Chemicals) and centrifugation according to the manufacturer's instructions. Aliquots of 3 mM solution of bis-5-HT-DTPA(Gd) was mixed with aliquots of ^111In-bis-5-HT-DTPA as a tracer, with or without human plasma and with and without MPO/H2O2. […] Radioactivity retained in the columns and the eluted material were counted separately in 1480 Wizard gamma counter (Perkin-Elmer) and the fraction of radioactivity bound to proteins was calculated (n=3 independent experiments).

[1] = biological target: T2, human myeloperoxidase (MPO) (Homo sapiens, UniProt P05164); assay: Pseudo-first-order rate constants of MPO-mediated conversion (relaxation times over time, 0.47 T); type: biochemical
T2 construct: purchased BioDesign Inc
Description: Kinetics of the samples were observed by measuring T1 and T2 at 0.47 T and 40° C. of the samples over at least a 24 hour period. At different time points, 1 M of sodium azide (final concentration=0.17 M) was added to stop the enzyme mediated reaction. The resultant progress curve was fitted with an empirical mathematical model and analyzed according to the Guggenheim method to obtain the pseudo-first-order rate constants (Guggenheim E A. Philos. Mag. 1926; 2:538).
An important property of a suitable substrate for an enzyme is the kinetics of enzymatic reaction. To determine the utility of the paramagnetic complexes as suitable substrates for human myeloperoxidase (MPO), we measured the pseudo-first-order rate constant of these substrates in MPO, and compared to the same substrates' reactions in Horse Radish Peroxidase (HRP) by monitoring the changes in relaxation time over time. […] The results shown were obtained using T1 measurements. T2 measurements yielded nearly identical results. The results are presented as mean±SD. N/A=not applicable.

Row | SMILES | increase of r1 compared with the initial substrate (Myeloperoxidase (MPO); 0.47T, 4 units of MPO) [%] | r1 (Myeloperoxidase (MPO); 0.47T, 4 units of MPO, H2O2) [mM⁻¹ s⁻¹] | relaxivity increase (Myeloperoxidase (MPO); 0.47T, enzyme activity lowered to 1 unit) [%] | fraction of the UV absorbance change observed within first 30 min (Myeloperoxidase (MPO); 10^4M, pH=7.2/25°, 4 units of MPO, excess H2O2) [%] | conversion (Myeloperoxidase (MPO); HPLC after addition of MPO) [%] | degree of polymerization (N) of oligomerized products (Myeloperoxidase (MPO); listed as Gd^3+2) | degree of polymerization (N) of oligomerized products (Myeloperoxidase (MPO); listed as bis-5-HT-DTPA(Gd)) | relaxivity (Myeloperoxidase (MPO); well plate at 1.5T, 4 units of MPO and H2O2, fitting of 3 wells) [mM⁻¹ s⁻¹] | minimum increase of relaxivity (Myeloperoxidase (MPO); well plate at 1.5T, range 10^−4 to 5 10^−4) [%] | binding of MPO-activated oligomers to plasma proteins compared to the substrate itself (plasma proteins) | fraction of the final relaxation rate obtained within the first 5 minutes [1] | Pseudo first-order rate constant ([1]; from T1 measurements, mean±SD) [s⁻¹]
1 | O=C([O-])CN(CCN(CC(=O)[O-])CC(=O)NCCc1c[nH]c2ccc(O)cc12)CCN(CC(=O)[O-])CC(=O)NCCc1c[nH]c2ccc(O)cc12.[Gd+3] [2Gd^3+] | 37 | 5.9 | 32 | 90 | 99.5 | 1-4 | up to 5 | 5.5 | ≥ 17 | over 3 fold | – | –
2 | CC(C(=O)NCC(=O)NCCc1c[nH]c2ccc(O)cc12)N1CCN(CC(=O)[O-])CCN(CC(=O)[O-])CCN(CC(=O)[O-])CC1.[Gd+3] (stereo not drawn) [5-HT-DOTA(Gd), Glycylmethyl DOTA(Gd) 5-Hydroxytryptamide] | – | – | – | – | – | – | – | – | – | – | more than 80% | 0.0063
